Values of other authors as cited in US20060251786A1 (priority 2005, published 2006).

Conditions: scale of 1-6; Gosselin et al., 5th ed, 1984

SMILES | toxicity level
CN1CCCC1c1cccnc1 (centres unmarked) [nicotine] | 6
O=c1ccc2ccccc2o1 [coumarin, 1,2-benzopyrone] | 4
